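Values below derive from 48-hour exposures of cells grown in 96-well plates, with endpoints linearly interpolated between the two concentrations bracketing the appropriate inhibition level. Here, GI50 denotes the concentration required for 50% inhibition of growth.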 Active and inactive are the calls of the source. No stated cut-off is given here; in the data, active = GI50 up to about 1.1 µM and inactive = higher.
Tests used:
Test in all cases: inhibition of tumour cell growth, NCI panel, 48 h
MDA-N = test system: MDA-N
NCI/ADR-RES = test system: NCI/ADR-RES
NCI-H460 = test system: NCI-H460
SK-MEL-28 = test system: SK-MEL-28
MCF7 = test system: MCF7
SNB-75 = test system: SNB-75
MOLT-4 = test system: MOLT-4
UACC-257 = test system: UACC-257
ACHN = test system: ACHN
HOP-62 = test system: HOP-62
HOP-92 = test system: HOP-92
KM12 = test system: KM12
PC-3 = test system: PC-3
SK-MEL-5 = test system: SK-MEL-5
MDA-MB-231 = test system: MDA-MB-231
OVCAR-4 = test system: OVCAR-4
SNB-19 = test system: SNB-19
RXF 393 = test system: RXF 393
OVCAR-8 = test system: OVCAR-8
Malme-3M = test system: Malme-3M
SF-295 = test system: SF-295
SF-268 = test system: SF-268
IGROV-1 = test system: IGROV-1
OVCAR-3 = test system: OVCAR-3
CAKI-1 = test system: CAKI-1
K562 = test system: K562
SR = test system: SR
SK-OV-3 = test system: SK-OV-3
DU-145 = test system: DU-145
LOX IMVI = test system: LOX IMVI
HL-60 = test system: HL-60
A498 = test system: A498
M14 = test system: M14
HCT-15 = test system: HCT-15
CCRF-CEM = test system: CCRF-CEM
SF-539 = test system: SF-539
HCC 2998 = test system: HCC 2998
T47D = test system: T47D
SW-620 = test system: SW-620
HT-29 = test system: HT-29
MDA-MB-435 = test system: MDA-MB-435
UO-31 = test system: UO-31
COLO 205 = test system: COLO 205
OVCAR-5 = test system: OVCAR-5
UACC-62 = test system: UACC-62
RPMI-8226 = test system: RPMI-8226
TK-10 = test system: TK-10
NCI-H23 = test system: NCI-H23
Hs-578T = test system: Hs-578T
BT-549 = test system: BT-549
SN12C = test system: SN12C
EKVX = test system: EKVX
SK-MEL-2 = test system: SK-MEL-2
NCI-H522 = test system: NCI-H522
HCT-116 = test system: HCT-116
NCI-H226 = test system: NCI-H226
786-0 = test system: 786-0
U-251 = test system: U-251
A549 = test system: A549

O=C1NC(c2ccccc2)C1N(Cc1ccccc1)Cc1ccccc1 (centres undefined)
GI50 (MDA-N): > 100 µM (inactive)
GI50 (NCI/ADR-RES): > 100 µM (inactive)
GI50 (NCI-H460): > 100 µM (inactive)
GI50 (SK-MEL-28): > 100 µM (inactive)
GI50 (MCF7): > 100 µM (inactive)
GI50 (SNB-75): 25.5 µM (inactive)
GI50 (MOLT-4): > 100 µM (inactive)
GI50 (UACC-257): > 100 µM (inactive)
GI50 (ACHN): > 100 µM (inactive)
GI50 (HOP-62): > 100 µM (inactive)
GI50 (HOP-92): > 100 µM (inactive)
GI50 (KM12): > 100 µM (inactive)
GI50 (PC-3): > 100 µM (inactive)
GI50 (SK-MEL-5): > 100 µM (inactive)
GI50 (MDA-MB-231): 74.1 µM (inactive)
GI50 (OVCAR-4): 59.8 µM (inactive)
GI50 (SNB-19): > 100 µM (inactive)
GI50 (RXF 393): > 100 µM (inactive)
GI50 (OVCAR-8): > 100 µM (inactive)
GI50 (Malme-3M): > 100 µM (inactive)
GI50 (SF-295): > 100 µM (inactive)
GI50 (SF-268): > 100 µM (inactive)
GI50 (IGROV-1): > 100 µM (inactive)
GI50 (OVCAR-3): > 100 µM (inactive)
GI50 (CAKI-1): > 100 µM (inactive)
GI50 (K562): > 100 µM (inactive)
GI50 (SR): > 100 µM (inactive)
GI50 (SK-OV-3): > 100 µM (inactive)
GI50 (DU-145): > 100 µM (inactive)
GI50 (LOX IMVI): > 100 µM (inactive)
GI50 (HL-60): > 100 µM (inactive)
GI50 (A498): > 100 µM (inactive)
GI50 (M14): > 100 µM (inactive)
GI50 (HCT-15): > 100 µM
GI50 (CCRF-CEM): > 100 µM (inactive)
GI50 (SF-539): > 100 µM (inactive)
GI50 (HCC 2998): > 100 µM (inactive)
GI50 (T47D): > 100 µM (inactive)
GI50 (SW-620): > 100 µM (inactive)
GI50 (HT-29): > 100 µM (inactive)
GI50 (MDA-MB-435): > 100 µM (inactive)
GI50 (UO-31): > 100 µM (inactive)
GI50 (COLO 205): > 100 µM (inactive)
GI50 (OVCAR-5): > 100 µM (inactive)
GI50 (UACC-62): 93.1 µM (inactive)
GI50 (RPMI-8226): > 100 µM (inactive)
GI50 (TK-10): > 100 µM (inactive)
GI50 (NCI-H23): > 100 µM (inactive)
GI50 (Hs-578T): 61.2 µM (inactive)
GI50 (BT-549): > 100 µM (inactive)
GI50 (SN12C): > 100 µM (inactive)
GI50 (EKVX): > 100 µM (inactive)
GI50 (SK-MEL-2): > 100 µM (inactive)
GI50 (NCI-H522): > 100 µM (inactive)
GI50 (HCT-116): > 100 µM (inactive)
GI50 (NCI-H226): > 100 µM (inactive)
GI50 (786-0): > 100 µM (inactive)
GI50 (U-251): > 100 µM (inactive)

CC(C)(C)OC(=O)N1C(C2=COc3ccccc3O2)=COc2cccnc21
GI50 (MDA-N): 1.99 µM (inactive)
GI50 (NCI/ADR-RES): 2 µM (inactive)
GI50 (NCI-H460): 1.74 µM (inactive)
GI50 (SK-MEL-28): 1.74 µM (inactive)
GI50 (MCF7): 1.66 µM (inactive)
GI50 (SNB-75): 15.7 µM (inactive)
GI50 (MOLT-4): 2.06 µM (inactive)
GI50 (UACC-257): 1.75 µM (inactive)
GI50 (ACHN): 1.65 µM (inactive)
GI50 (HOP-62): 1.85 µM (inactive)
GI50 (HOP-92): 1.25 µM (inactive)
GI50 (KM12): 1.78 µM (inactive)
GI50 (PC-3): 1.96 µM (inactive)
GI50 (SK-MEL-5): 1.75 µM (inactive)
GI50 (MDA-MB-231): 1.81 µM (inactive)
GI50 (OVCAR-4): 1.6 µM (inactive)
GI50 (SNB-19): 2.04 µM (inactive)
GI50 (RXF 393): 1.62 µM (inactive)
GI50 (OVCAR-8): 1.9 µM (inactive)
GI50 (Malme-3M): 1.45 µM (inactive)
GI50 (SF-295): 1.95 µM (inactive)
GI50 (SF-268): 1.5 µM (inactive)
GI50 (IGROV-1): 1.62 µM (inactive)
GI50 (OVCAR-3): 1.72 µM (inactive)
GI50 (CAKI-1): 2.13 µM (inactive)
GI50 (K562): 1.99 µM (inactive)
GI50 (SR): 2.18 µM (inactive)
GI50 (SK-OV-3): 1.81 µM (inactive)
GI50 (DU-145): 1.33 µM (inactive)
GI50 (LOX IMVI): 1.74 µM (inactive)
GI50 (HL-60): 1.8 µM (inactive)
GI50 (A498): 1.71 µM (inactive)
GI50 (M14): 1.79 µM (inactive)
GI50 (HCT-15): 1.77 µM
GI50 (SF-539): 2 µM (inactive)
GI50 (HCC 2998): 1.69 µM (inactive)
GI50 (T47D): 1.42 µM (inactive)
GI50 (SW-620): 2.01 µM (inactive)
GI50 (HT-29): 1.91 µM (inactive)
GI50 (MDA-MB-435): 1.74 µM (inactive)
GI50 (UO-31): 1.64 µM (inactive)
GI50 (COLO 205): 1.9 µM (inactive)
GI50 (OVCAR-5): 1.65 µM (inactive)
GI50 (UACC-62): 1.58 µM (inactive)
GI50 (RPMI-8226): 1.55 µM (inactive)
GI50 (TK-10): 2.75 µM (inactive)
GI50 (NCI-H23): 1.61 µM (inactive)
GI50 (Hs-578T): 3.64 µM (inactive)
GI50 (BT-549): 1.59 µM (inactive)
GI50 (A549): 1.98 µM (inactive)
GI50 (SN12C): 1.71 µM (inactive)
GI50 (EKVX): 1.38 µM (inactive)
GI50 (SK-MEL-2): 1.94 µM (inactive)
GI50 (NCI-H522): 1.61 µM (inactive)
GI50 (HCT-116): 1.99 µM (inactive)
GI50 (NCI-H226): 1.71 µM (inactive)
GI50 (786-0): 1.83 µM (inactive)
GI50 (U-251): 1.73 µM (inactive)

Clc1ccc(/C=N/C23CC4CC(CC(C4)C2)C3)cc1Cl
GI50 (MDA-N): > 10 µM (inactive)
GI50 (NCI/ADR-RES): > 10 µM (inactive)
GI50 (NCI-H460): > 10 µM (inactive)
GI50 (SK-MEL-28): > 10 µM (inactive)
GI50 (MCF7): > 10 µM (inactive)
GI50 (SNB-75): > 10 µM (inactive)
GI50 (MOLT-4): > 10 µM (inactive)
GI50 (UACC-257): > 10 µM (inactive)
GI50 (ACHN): > 10 µM (inactive)
GI50 (HOP-62): > 10 µM (inactive)
GI50 (HOP-92): > 10 µM (inactive)
GI50 (KM12): > 10 µM (inactive)
GI50 (PC-3): > 10 µM (inactive)
GI50 (SK-MEL-5): > 10 µM (inactive)
GI50 (MDA-MB-231): > 10 µM (inactive)
GI50 (OVCAR-4): > 10 µM (inactive)
GI50 (SNB-19): > 10 µM (inactive)
GI50 (RXF 393): > 10 µM (inactive)
GI50 (OVCAR-8): > 10 µM (inactive)
GI50 (Malme-3M): > 10 µM (inactive)
GI50 (SF-295): > 10 µM (inactive)
GI50 (SF-268): > 10 µM (inactive)
GI50 (IGROV-1): > 10 µM (inactive)
GI50 (OVCAR-3): > 10 µM (inactive)
GI50 (CAKI-1): > 10 µM (inactive)
GI50 (K562): > 10 µM (inactive)
GI50 (SR): > 10 µM (inactive)
GI50 (SK-OV-3): > 10 µM (inactive)
GI50 (DU-145): > 10 µM (inactive)
GI50 (LOX IMVI): > 10 µM (inactive)
GI50 (HL-60): > 10 µM (inactive)
GI50 (A498): > 10 µM (inactive)
GI50 (M14): > 10 µM (inactive)
GI50 (HCT-15): > 10 µM
GI50 (CCRF-CEM): > 10 µM (inactive)
GI50 (SF-539): > 10 µM (inactive)
GI50 (HCC 2998): > 10 µM (inactive)
GI50 (T47D): > 10 µM (inactive)
GI50 (SW-620): > 10 µM (inactive)
GI50 (HT-29): > 10 µM (inactive)
GI50 (MDA-MB-435): > 10 µM (inactive)
GI50 (COLO 205): > 10 µM (inactive)
GI50 (OVCAR-5): > 10 µM (inactive)
GI50 (UACC-62): > 10 µM (inactive)
GI50 (RPMI-8226): > 10 µM (inactive)
GI50 (TK-10): > 10 µM (inactive)
GI50 (NCI-H23): > 10 µM (inactive)
GI50 (Hs-578T): > 10 µM (inactive)
GI50 (BT-549): > 10 µM (inactive)
GI50 (A549): > 10 µM (inactive)
GI50 (SN12C): > 10 µM (inactive)
GI50 (EKVX): > 10 µM (inactive)
GI50 (SK-MEL-2): > 10 µM (inactive)
GI50 (NCI-H522): > 10 µM (inactive)
GI50 (HCT-116): > 10 µM (inactive)
GI50 (NCI-H226): > 10 µM (inactive)
GI50 (786-0): > 10 µM (inactive)
GI50 (U-251): > 10 µM (inactive)
